This note sets out measurements from the OPERA property sets (Mansouri et al. 2018).

Peptide text beside a SMILES is read from it.

Consider `CSc1ncc2ccccc2n1`, for which the logP was found to be 2.5.

In the case of `CN(C)C(N(C)C)=S(I)c1ccccc1[N+](=O)[O-]` (stereo not drawn), the logP is -0.92.

Consider `CC(=O)N[C@@H](Cc1ccccc1)C(=O)N[C@H](C(N)=O)C(C)C` (Ac-Phe-Val-NH2), for which the logP turned out to be 0.43. For `NCCc1c[nH]c2ccc(O)cc12`, the logP stood at 0.21.

With `COc1ccc(C(C)=O)cc1`, the logP worked out at 1.74. Then `Nc1ccc2ccccc2c1S(=O)(=O)O`, with -1.16. Then `Sc1ccccn1`, with -0.13; and `O=C1CCC(c2ccccc2)(C2CCN(Cc3ccccc3)CC2)C(=O)N1` (stereo not drawn), with 3.55.

`CC(=NO)c1cccs1`: the logP amounted to 1.81. Then `CNS(=O)(=O)c1ccc(S(I)=C(N(C)C)N(C)C)cc1` (stereo not drawn), with -1.4. Compound `NC(CO)C(=O)O` (stereo not drawn) yielded a logP of -3.07. Then `COC1=CC(=O)C[C@@H](C)[C@]12Oc1c(Cl)c(OC)cc(OC)c1C2=O`, with 2.18; and `CC(=O)c1ccncc1`, with 0.48; and `CC(=O)N[C@@H](C)C(=O)NCC(=O)N[C@@H](Cc1ccccc1)C(N)=O` (Ac-Ala-Gly-Phe-NH2), with -0.71.

As to `Nc1nc(N)nc(-c2ccc([N+](=O)[O-])cc2)n1`, the logP was found to be 1.6. Then `Cn1nnc2ccccc2c1=O`, with 0.84; and `NC(=O)C1CCCN1C(=O)C(Cc1cn(C(=O)OC2CCCCC2)cn1)NC(=O)C1CCC(=O)N1` (stereo not drawn), with 0.6. Then `FC(F)(F)c1ccc(C(F)(F)F)cc1`, with 3.83; and `CCN(N=O)C(=O)Nc1ccccc1`, with 2.25; and `NC(=O)c1cnc2ccccc2c1`, with 1.06. Then `CCCCOc1ccc([N+](=O)[O-])cc1`, with 3.5.

The compound `CC(=O)N[C@@H](CC(N)=O)C(=O)N[C@H](C(N)=O)C(C)C` returned a logP of -1.85. Compound `O=C(OCn1ncc2c(=O)[nH]cnc21)c1cccc(CN2CCOCC2)c1` showed a logP of 1.13. Then `COc1ccccc1NCC(N)=O`, with 0.78. Then `O=S(=O)(c1ccccc1)c1cccc2cccnc12`, with 2.33. Then `CC(=O)Nc1ncc([N+](=O)[O-])s1`, with 1.3; and `Nc1ccc(Cc2ccc(N)cc2)cc1`, with 1.59; and `Nc1ccc(F)cc1F`, with 1.54. For the compound `CCCC(=O)O[C@]1(C(=O)CCl)[C@@H](C)C[C@H]2[C@@H]3CCC4=CC(=O)C=C[C@]4(C)[C@@]3(F)C(=O)C[C@@]21C`, the logP amounted to 3.76. Then `ClC(Cl)=C(Cl)Cl`, with 3.4; and `CC(=O)c1cccc(O)c1`, with 1.39; and `O=C(O)c1cccc(C(=O)O)c1`, with 1.66.

`NC(=O)Oc1ccccc1` returned a logP of 1.08.

Turning to `O=C1C=C(NCCO)C(=O)c2ccccc21`, the logP amounted to 1.23. `Cc1cc(NN)ncn1`: the logP came out at 0.62.

Compound `CC(=O)c1ccccc1O` returned a lipophilicity (logP) of 1.92. Then `Cc1ccc(/C(=C\CN2CCCC2)c2ccccn2)cc1`, with 3.92.

`O=C1C=C(N2CC2)C(=O)c2ccccc21`: the logP is 1.71. Then `NCCCC[C@H](N)C(=O)O`, with -3.05. `CCC(=O)OC1(C(=O)CBr)C(C)CC2C3CCC4=CC(=O)C=CC4(C)C3(F)C(=O)CC21C` (stereo not drawn) displayed a logP of 3.55.

As to `Clc1cncc(Cl)c1`, the logP stood at 2.56. Take `COC(=O)c1cnc([N+](=O)[O-])n1C`: the logP is 0.51. For `O=[N+]([O-])c1ccc2sccc2c1`, the logP is 2.92. `CC(=O)c1ccc(F)cc1` showed a logP of 1.72.

`CC(=O)N[C@@H](C)C(=O)N[C@@H](Cc1ccc(O)cc1)C(=O)N[C@@H](CC(C)C)C(N)=O` (Ac-Ala-Tyr-Leu-NH2): the logP is -0.04. `O=C(O)Cc1ccccc1` registered a logP of 1.41.

`O=[N+]([O-])c1ccccc1C(F)(F)F` showed a logP of 2.58. Take `CCCN(CCC)S(=O)(=O)c1ccc(C(=O)O)cc1`: the logP worked out at 3.21.

The compound `CC(=O)CCC1CC1` gave a log partition coefficient (logP) of 1.5. With `CN(C)C(N(C)C)=S(I)c1cccc(Br)c1` (stereo not drawn), the logP stood at 0.01.

`CCN1CCN(C(=O)NC(C(=O)NC2C(=O)N3C(C(=O)O)=C(CSc4nnnn4C)CSC23)c2ccc(O)cc2)C(=O)C1=O` (stereo not drawn) came in with a logP of -0.74. Then `COc1cccc(C(=O)O)c1`, with 2.02.

`CC1CN(N=O)CC(C)N1` (stereo not drawn): the logP is 0.73.

The compound `CCC1C2CC3C4N(C)c5ccccc5C45CC(C2C5O)N3C1O` (stereo not drawn) came in with a logP of 1.81.

`Cc1ccc2c(c1)C(=O)C=CC2=O`: the logP came to 2.1. Then `O=C1CCCCCCN1`, with 0.24; and `CNc1ccccc1`, with 1.66. In turn, `OCCNCCO` showed a logP of -1.43. Take `Oc1c(Cl)c(Cl)cc(Cl)c1Cl`: the logP worked out at 3.88.

Compound `CCCCOc1cc(C(=O)NCCN(CC)CC)c2ccccc2n1` showed a logP of 4.4.

As to `CON(C)C(=O)Nc1ccc(C(C)=O)cc1`, the logP was found to be 1.22. `COc1c(O)cc2c(c1OC)-c1ccc(SC)c(=O)cc1C(NC(=O)C(F)(F)F)CC2` (stereo not drawn): the logP is 2.61.

`c1ccc(NC2=NCCN2)cc1` gave a logP of 1.01.

As for `O=C1C=CCO1`, the logP is -0.6. Then `CN(N=O)C(N)=O`, with -0.03. Turning to `NC(=O)Nc1cccc(F)c1`, the logP is 1.29. Then `CC(=O)c1ccccc1Cl`, with 2.09.

Consider `Nc1ccc(F)c(Cl)c1`, for which the logP was 2.06. Compound `CCCCOc1ccc(OC(=O)NC)cc1` gave a logP of 2.86.

`COc1cc(C(O)CN)ccc1O` (stereo not drawn) displayed a logP of -1.05.

`S=C=Nc1ccccc1` had a logP of 3.28. Then `CC(C)(C)C(=O)NC(CO)C(O)c1ccc([N+](=O)[O-])cc1` (stereo not drawn), with 1.33; and `NC(=O)c1cnc2ccccc2n1`, with 0.98. Then `Cc1cccc(N)c1`, with 1.4; and `COC(=O)CCCCC(C)=O`, with 0.55.

As to `CC(C)c1ccc(O)cc1`, the logP came to 2.9.

Regarding `Cc1ccc(-c2nc(N)nc(N)n2)cc1`, the logP was determined as 1.92. `C#C[C@]1(O)CC[C@H]2[C@@H]3CCC4=CC(=O)CC[C@]4(C)[C@H]3CC[C@@]21C` yielded a logP of 3.11. Then `CC1OC(C)OC(C)O1` (stereo not drawn), with 0.67; and `COc1ccc(S(N)(=O)=O)cc1C(=O)NCC1CCCN1Cc1ccc(F)cc1` (stereo not drawn), with 2.46; and `C=CCC1(CC)C(=O)NC(=O)NC1=O`, with 0.95. As for `CCCC(=O)OCC(O)CO` (stereo not drawn), the logP was -0.17. Then `NC(=O)N(CCCCCCN(N=O)C(N)=O)N=O`, with 0.58; and `O=NN(CCCl)C(=O)NC1C(O)CCCC1O` (stereo not drawn), with 0.16. Then `O=c1oc2ccccc2c(O)c1Cc1c(O)c2ccccc2oc1=O`, with 2.07; and `c1ccc(-c2cc3ccccn3c2)cc1`, with 4.29. Then `C1CCc2nnnn2CC1`, with 0.14. Consider `CN(C=O)c1ccccc1`, for which the logP came to 1.09. `ON=Cc1ccc(Cl)cc1`: the logP amounted to 2.67. With `CNC(=O)Oc1cc(C)c(Cl)cc1Cl`, the logP was 3. `C=CC(=O)OCC(C)C` came in with a logP of 2.22.

For the compound `CCC(=O)OC(Cc1ccccc1)(c1ccccc1)C(C)CN(C)C` (stereo not drawn), the logP stood at 4.18. Then `NC(=O)CCCCOC(=O)c1ccccc1`, with 1.39.

As a reminder, the logP is a log measure of how a compound divides between an organic and an aqueous phase.
